The results in this text go back to PubChem BioAssay (NCI).

Structures are written as SMILES. Where “and” joins values, the source holds several entries; their conditions need not be identical. Equal values may be shown once.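 All cell lines were grown in 96-well plates and treated with compound for 48 hours. At the GI50, growth is halved. TGI denotes the concentration required for complete inhibition of growth.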

Test systems include OVCAR-4 ovarian; HCT-15 colon; LOX IMVI melanoma; SNB-19 CNS; UACC-257 melanoma; IGROV1 ovarian; MDA-MB-231 breast; UO-31 renal; A549 NSCLC; SN12C renal.
What all share (test): NCI tumour cell line growth inhibition, 48 h

On to `C#Cc1c(/C=C/C(=O)OCC)ccc2ccccc12`, for which the GI50 in the assay on OVCAR-4 ovarian was 20.7 µM; with HCT-15 colon, 9.99 µM; with LOX IMVI melanoma it was 13.1 µM; in the assay on SNB-19 CNS, 36.8 µM; in the assay on UACC-257 melanoma, 27.4 µM; with IGROV1 ovarian, 5.77 µM. Besides, the GI50 was 13.4 µM in the assay with MDA-MB-231 breast, 12.7 µM with UO-31 renal, 30.4 µM in the assay with A549 NSCLC and 13.3 µM in the assay on SN12C renal. Further, the TGI was 69.1 µM with OVCAR-4 ovarian; 97.3 µM in the assay on HCT-15 colon; 27.4 µM in the assay with LOX IMVI melanoma; above 100 µM in the assay with SNB-19 CNS; above 100 µM in the assay with UACC-257 melanoma; 26.2 µM in the assay with IGROV1 ovarian. In addition, the TGI was 35 µM with MDA-MB-231 breast, 26.6 µM with UO-31 renal, above 100 µM in the assay on A549 NSCLC and 39.4 µM in the assay on SN12C renal.
Consider `Cc1nc2ccccc2c(/C=C/c2ccc(Cl)cc2)c1C(=O)/C=C/c1ccc(C(F)(F)F)cc1`, for which the GI50 in the assay on OVCAR-4 ovarian was 1.26 µM; with HCT-15 colon, 0.179 µM; in the assay with LOX IMVI melanoma, 0.181 µM; with SNB-19 CNS, 0.722 µM; in the assay with UACC-257 melanoma, 1.06 µM; in the assay on IGROV1 ovarian, 0.282 µM. Also, the GI50 in the assay with MDA-MB-231 breast is 0.301 µM; with UO-31 renal, 0.238 µM; with A549 NSCLC it was 1.41 µM; in the assay on SN12C renal, 1.15 µM. Also, the TGI in the assay on OVCAR-4 ovarian amounted to 2.61 µM; with HCT-15 colon, 0.599 µM; in the assay with LOX IMVI melanoma it was 0.361 µM; in the assay on SNB-19 CNS, 1.97 µM; in the assay on UACC-257 melanoma it was 2.93 µM; in the assay with IGROV1 ovarian, 1.56 µM. Moreover, the TGI came to 0.947 µM in the assay on MDA-MB-231 breast, 0.807 µM in the assay with UO-31 renal, 3.48 µM in the assay on A549 NSCLC and 2.62 µM in the assay on SN12C renal.
For `C#CCSc1cc(Cl)c(C)cc1S(=O)(=O)Nc1nc2ccccc2o1`, the GI50 in the assay on OVCAR-4 ovarian is 51 µM; in the assay with HCT-15 colon, 31.5 µM; in the assay on LOX IMVI melanoma, 36 µM; with SNB-19 CNS, 44.5 µM; in the assay on UACC-257 melanoma, 29.4 µM; with IGROV1 ovarian, 34.8 µM. Also, the GI50 was 46.8 µM with MDA-MB-231 breast, 23.8 µM in the assay with UO-31 renal, 31.8 µM with A549 NSCLC and 43.5 µM in the assay on SN12C renal. Also, the TGI with OVCAR-4 ovarian is above 100 µM; in the assay on HCT-15 colon it was 90 µM; in the assay on LOX IMVI melanoma, above 100 µM; with SNB-19 CNS, above 100 µM; with UACC-257 melanoma, 81.6 µM; in the assay on IGROV1 ovarian, above 100 µM. Moreover, the TGI in the assay on MDA-MB-231 breast is above 100 µM; with UO-31 renal, 52.8 µM; in the assay with A549 NSCLC it was above 100 µM; in the assay on SN12C renal, above 100 µM.
For `Cc1nnc(-c2cccc(-c3ccc(C(=O)NCC4CC4)cc3)c2)o1`, the GI50 in the assay with OVCAR-4 ovarian, in the assay on HCT-15 colon, in the assay with LOX IMVI melanoma, in the assay with SNB-19 CNS, with UACC-257 melanoma and in the assay with IGROV1 ovarian was above 25 µM throughout. Moreover, the GI50 in the assay with MDA-MB-231 breast, with UO-31 renal, with A549 NSCLC and in the assay with SN12C renal was above 25 µM in each case. The TGI in the assay with OVCAR-4 ovarian, in the assay on HCT-15 colon, in the assay with LOX IMVI melanoma, with SNB-19 CNS, with UACC-257 melanoma and with IGROV1 ovarian was above 25 µM each time. Further, the TGI with MDA-MB-231 breast, with UO-31 renal, in the assay with A549 NSCLC and with SN12C renal was above 25 µM in each case.
`O=Nc1ccc(NO)c2ccccc12`: the GI50 in the assay on OVCAR-4 ovarian was 3.33 µM; in the assay on HCT-15 colon it was 14.9 µM; with LOX IMVI melanoma, 2.78 µM; in the assay with SNB-19 CNS, 15.1 µM; with UACC-257 melanoma, 2.31 µM; in the assay on IGROV1 ovarian it was 3.62 µM. For the same compound, the GI50 was 10.3 µM in the assay on MDA-MB-231 breast, 13.2 µM with UO-31 renal, 18.3 µM with A549 NSCLC and 2.68 µM with SN12C renal. Moreover, the TGI in the assay with OVCAR-4 ovarian came out at 16.2 µM; in the assay on HCT-15 colon, 31.7 µM; in the assay with LOX IMVI melanoma, 12.1 µM; in the assay with SNB-19 CNS, 28.5 µM; with UACC-257 melanoma, 5.39 µM; in the assay on IGROV1 ovarian it was 16.4 µM. In addition, the TGI stood at 47.5 µM in the assay on MDA-MB-231 breast, 26.4 µM in the assay with UO-31 renal, 38.7 µM in the assay on A549 NSCLC and 11 µM in the assay with SN12C renal.
With `O=C(c1ccccc1)C(CN1CCCCC1)c1ccccc1` (centres undefined), the GI50 in the assay with OVCAR-4 ovarian is 1.54 µM; with HCT-15 colon, 0.599 µM; in the assay on LOX IMVI melanoma it was 0.478 µM; in the assay with SNB-19 CNS, 9.6 µM; in the assay on UACC-257 melanoma, 1.73 µM; in the assay with IGROV1 ovarian, 1.5 µM. For the same compound, the GI50 with MDA-MB-231 breast was 1.82 µM; in the assay on UO-31 renal, 1.58 µM; in the assay with A549 NSCLC it was 16.1 µM; in the assay on SN12C renal, 1.79 µM. Also, the TGI in the assay on OVCAR-4 ovarian was found to be 4.52 µM; with HCT-15 colon, 2.06 µM; in the assay on LOX IMVI melanoma, 1.7 µM; with SNB-19 CNS, 21.5 µM; in the assay on UACC-257 melanoma, 4.06 µM; in the assay with IGROV1 ovarian, 3.34 µM. Moreover, the TGI in the assay with MDA-MB-231 breast was determined as 4.37 µM; in the assay on UO-31 renal, 3.07 µM; with A549 NSCLC, 43.8 µM; in the assay with SN12C renal it was 3.8 µM.
Regarding `Cc1nc(-c2cn3c(n2)-c2ccc(-c4cnn(C(C)(C)C(N)=O)c4)cc2OCC3)n(C(C)C)n1`, the TGI with OVCAR-4 ovarian is above 10 µM; with HCT-15 colon, 39.9 µM and > 10 µM; in the assay with LOX IMVI melanoma, 17.7 µM and > 10 µM; with SNB-19 CNS it was above 100 µM; with UACC-257 melanoma it was 26.1 µM and > 10 µM; in the assay on IGROV1 ovarian, 0.0829 µM and 0.0677 µM. Besides, the TGI with MDA-MB-231 breast was 35.9 µM and > 10 µM; with UO-31 renal, 15.3 µM and > 8.44 µM; in the assay with A549 NSCLC, 16.8 µM and > 10 µM; in the assay with SN12C renal, above 100 µM. The GI50 with HCT-15 colon was 0.219 µM and 0.314 µM; with LOX IMVI melanoma it was 0.279 µM and 0.74 µM; with SNB-19 CNS, 1.92 µM and 2.47 µM; in the assay on UACC-257 melanoma, 0.297 µM and 0.733 µM; in the assay with IGROV1 ovarian, < 0.0106 µM and 0.00612 µM; in the assay on MDA-MB-231 breast, 6.44 µM and 4.11 µM. For the same compound, the GI50 with UO-31 renal was 0.185 µM and 0.14 µM; with A549 NSCLC it was 0.332 µM and 0.392 µM; in the assay with SN12C renal it was 1.54 µM and 1.04 µM.
